# Data reported in patent US20260049061A1, “SMALL MOLECULES AS KCNQ2/3 (KV7.2/3) CHANNEL ACTIVATORS AND THEIR MEDICAL USE THEREOF” (Humanwell Pharmaceutical US, Inc., priority 2024, published 2026).
# Molecular target: T1, KNCQ2/3 (Kv7.2/7.3) (Homo sapiens, UniProt O43525+O43526)
# T1 construct: host or cells: HEK293
# Assay: Kv7.2/7.3 (KNCQ2/3) activation assay, QPatch single concentration screen
# Format: cell-based
# Conditions: increase in current over baseline, HEK293 cells with overexpressed Kv7.2/3, compound 1 μM, steady-state current at +40 mV
# Procedure: The ability of compounds to potentiate K-currents in HEK293 cells with overexpressed KNCQ2/3 (Kv7.2/7.3) was assessed using patch clamp on the QPatch automated screening platform.
# Cell Line: The HEK293 cell line with overexpressed Kv7.2/7.3 was obtained from ICE Bioscience Inc. These HEK cells have been engineered to overexpress the Kv7.2/3 ion channels.
# Cell Culture: Cells were maintained in the media containing DMEM (Corning, cat. #10-013-CV), 10% FBS (Gibco, cat. #10099141C), 800 μg/mL G418 (GPC, cat. #AK108) and 200 μg/mL hygromycin B (Solarbio, cat. #H8080). The cells were incubated at 37° C. in a humidified incubator under 5% carbon dioxide. Cells were grown in 6 cm dishes to ˜80% confluency. Currents were recorded 24 hours after channel induction.
# Compound Plates: Test compounds were prepared by performing serial dilutions in DMSO (Sigma cat #D4540). Final dilutions were made in external recording solution with a final DMSO concentration of 0.1% DMSO. For single concentration screens each plate had 10 μM retigabine (Selleck Chemicals, cat. #S4733) as a positive control.
# Electrophysiology: External solution contained 140 mM NaCl (Sigma cat. #S5886), 3.5 mM KCl (Sigma cat. #P5405), 1 mM MgCl2·6H2O (Sigma cat. #M2393), 2 mM CaCl2·2H2O (Sigma cat. #C7902), 10 mM D-Glucose (Sigma cat. #G8270), 10 mM HEPES (Santa Cruz cat. #SC-29097A), 1.25 mM NaH2PO4·2H2O, pH was adjusted to 7.4 with NaOH. Internal solution contained 125 mM K-Aspartic (Sigma cat. #G4500), 20 mM KCl, 10 mM EGTA (Sigma cat. #E3889), 1 mM MgCl2·6H2O, 5 mM Mg-ATP (Sigma cat. #A9187), 5 mM HEPES, pH was adjusted to 7.2 with KOH.
# On the day of the experiment cells are washed with the external solution and harvested with 0.25% Trypsin EDTA (Gibco cat. #25200-072). Cells were then centrifuged at 1000 rpm/min for 5 minutes and resuspended in the external solution at ˜2.5×10^6 cells/mL. The cells were stirred with an equilibrium sharker for 20 minutes at room temperature before experiments started.
# Potassium channel activity was measured on the QPatch 48X (Sophion Bioscience) using QPlates with 48-wells plate. The KCNQ current was recorded when the voltage was held at −80 mV for 3s, then stepped to −30 mV for 500 ms and back to […]. The process was repeated with an increment of 10 mV between −80 mV and +40 mV. Each cell was taken as an independent experiment and only one compound was tested per well.
# Single Concentration Screen: Baseline conditions were obtained by recording 5 sweeps in the external solution only, this was repeated for three applications of the external solution. The effect of test compounds on elicited current was then assessed by recording 5 sweeps in the presence of a 1 μM compound solution. The steady-state current at the end of the 2 s pulse to +40 mV was measured to determine the fold increase from baseline.
row,SMILES,activity at 1 µM [%]
1,O=C(CC1CC(F)(F)C1)Nc1nn2c(c1-c1ccc(F)cc1)CC(C(F)(F)F)CC2 (stereo not drawn) [Compound 32],≥ 300
2,O=C(CC12CC(C1)C2)Nc1nn2c(c1-c1ccc(F)cc1)CC(C(F)(F)F)CC2 (stereo not drawn) [Compound 33],≥ 300
3,COC1CCn2nc(NC(=O)CC(C)(C)C)c(-c3ccc(F)cc3)c2C1 (stereo not drawn) [Compound 12],200 to 300
4,CC(C)(C)CC(=O)Nc1nc2c(n1C1CCC1)CCCC2 [Compound 3],100 to 200
5,CC(C)(C)CC(=O)Nc1nn2c(c1C1CCCCC1)CC(C(F)(F)F)CC2 (stereo not drawn) [Compound 15],≥ 300
6,CC(C)(C)CC(=O)Nc1nc2c(n1C(C)(C)C)CCCC2 [Compound 1],100 to 200
7,O=C(CCC(F)(F)F)Nc1nn2c(c1-c1ccc(F)cc1)CC(C(F)(F)F)CC2 (stereo not drawn) [Compound 34],200 to 300
8,CC(C)(C)CC(=O)Nc1nn2c(c1C1CCC1)CC(C(F)(F)F)CC2 (stereo not drawn) [Compound 20],≥ 300
9,CC1(CC(=O)Nc2nn3c(c2-c2ccc(F)cc2)CC(C(F)(F)F)CC3)CC1 (stereo not drawn) [Compound 35],≥ 300
10,CC(C)(C)CC(=O)Nc1nn2c(c1C1=CCCCC1)CC(C(F)(F)F)CC2 (stereo not drawn) [Compound 14],200 to 300
11,CC(C)(C)CC(=O)Nc1nn2c(c1C1CCC1)CCCC2 [Compound 8],200 to 300
12,CC(C)(C)CC(=O)Nc1nn2c(c1-c1ccc(F)cc1)CN(C(F)(F)F)CC2 [Compound 7],100 to 200
13,CC(C)(CC(=O)Nc1nn2c(c1-c1ccc(F)cc1)CC(C(F)(F)F)CC2)C(F)(F)F (stereo not drawn) [Compound 10],≥ 300
14,CC(C)(C)CC(=O)Nc1nn2c(c1-c1cccnc1)CC(C(F)(F)F)CC2 (stereo not drawn) [Compound 16],100 to 200

# Now from value to compound:
row,activity at 1 µM [%],SMILES
1,≥ 300,CC(C)(F)CC(=O)Nc1nn2c(c1-c1ccc(F)cc1)CC(C(F)(F)F)CC2 (stereo not drawn) [Compound 36]
2,≥ 300,CC(C)(C)CC(=O)Nc1nn2c(c1-c1ccc(F)cc1)CC1(CC2)CC(F)(F)C1 [Compound 55]
3,200 to 300,CCn1c(NC(=O)CC(C)(C)C)nc2c1CCCC2 [Compound 65]
4,100 to 200,CC(C)(C)CC(=O)Nc1nc2ncccc2n1-c1ccc(F)cc1 [Compound 60]
5,100 to 200,O=C(CC1CSC1)Nc1nn2c(c1-c1ccc(F)cc1)CC(C(F)(F)F)CC2 (stereo not drawn) [Compound 37]
6,200 to 300,CC(C)(C)CC(=O)Nc1nc2n(c1-c1ccc(OC(F)(F)F)cc1)CCCC2 [Compound 54]
7,100 to 200,CCn1c(NC(=O)CC(C)(C)C(F)(F)F)nc2c1CCCC2 [Compound 64]
8,100 to 200,C=CCN1CCn2nc(NC(=O)CC(C)(C)C)c(-c3ccc(F)cc3)c2C1 [Compound 44]
9,200 to 300,CC(C)(C)CC(=O)Nc1nn2c(c1-c1ccc(F)cc1)CN(C1CC1)CC2 [Compound 43]
10,100 to 200,CC(C)(CC(=O)Nc1nn2c(c1-c1ccc(F)cc1)CN(C1CC1)CC2)C(F)(F)F [Compound 47]
11,100 to 200,CC(C)(C)CC(=O)Nc1nc2n(c1C1CCCCC1)CCCC2 [Compound 53]

# Test system: PTZ-induced epileptic model using ICR mice
# Assay: PTZ-induced epilepsy model in ICR mice
# Format: in vivo
# Conditions: male ICR mice, 10 mg/kg oral 30 min before PTZ 100 mg/kg i.p., recorded for 30 min
# Procedure: SPF-grade male ICR mice (22-24 g) were purchased from Human Silaike Jingda Laboratory Animal Co. Ltd., China and sent to the housing facility after veterinary inspection to adapt to the rearing environment. The mice were housed in cages for 3 days under suitable conditions (temperature at 22±1° C., humidity at 40-70%, sufficient water and food, 12 hours of daylight). On the formal test day, all mice were weighed, and those meeting the weight criteria were numbered at the base of their tails. […] Animals were orally administered compound 34 (10 mg/kg) 30 min before the i.p. injection of PTZ (100 mg/kg, Sigma, USA) for epilepsy modeling. The seizure response of the mice was evaluated based on the epilepsy grading criteria. The latency and incidence rate of each seizure grade were recorded for 30 min. After the experiment, the test animals were euthanized using carbon dioxide. The results are shown in Table 2 and FIG. 1 respectively.
SMILES,Latency to Racine IV Seizure [s],Latency to Racine VI Seizure [s]
CC(C)(CC(=O)Nc1nn2c(c1-c1ccc(F)cc1)CCCC2)C(F)(F)F [Compound 38],784,1320
O=C(CCC(F)(F)F)Nc1nn2c(c1-c1ccc(F)cc1)CC(C(F)(F)F)CC2 (stereo not drawn) [Compound 34],1393,1658
CC(C)CS(=O)(=O)Nc1nn2ccc(Cl)cc2c1-c1ccc(F)cc1 [Compound 62],636,1409

# Test system: formalin model using SD rats
# Assay: 2% formalin rat model (paw licking)
# Format: in vivo
# Conditions: male SD rats, 10 mg/kg oral 15 min before intraplantar 2.0% formalin, paw licking monitored for 60 min
# Procedure: SPF male SD rats (170-190 g) were purchased from Human Silaike Jingda Laboratory Animal Co. Ltd., China. The rats were housed in cages for 3 days under suitable conditions (temperature at 22±1° C., humidity at 40-70%, sufficient water and food, 12 hours of daylight). The rats with a body weight of 220-240 g were numbered for further experiments. The rats were placed in the ZH-PAN801 automated rodent behavioral tracking system (Anhui Zhenghua Biologic Apparatus Facilities) for 60 min per day for an additional 3 days.
# Paw licking behavior, a correlation of spontaneous pain, was tracked using the ZH-PAN801 automated rodent behavioral tracking system that can differentiate behaviors and locomotor activity of individually housed rats. The ZH-PAN801 system consists of sensor platforms which rest on two orthogonally placed force transducers and a third fixed point attached to a base plate. Each force transducer transforms the mechanical vibrations caused by animal movement into electrical signals, which are amplified, filtered, and digitized by the ZH-PAN801 system. Characteristic movements have their own unique vibrational patterns which the ZH-PAN801 software can distinguish. The cylinder cages (75 mm (radius)×310 mm (height)) consist of two halves to sensitize detection of vibrations. Thus, the base is separate from the sides, the lid, and sits directly on the sensor platform, while the sides and the lid hang from supports on the base plate.
# Rats were equipped with the force transducer 15 min before the dosing. Animals were orally administered compound 21 (10 mg/kg) 15 min before the formalin injection. Rats were administered an intraplantar injection of formalin (50 μL, 2.0%, Sigma, USA) into the dorsal surface of the hindpaw attached with the force transducer to induce acute pain and placed in the automated rodent behavioral tracking system. Paw licking behavior was monitored for 60 min using the ZH-PAN801 behavior tracking system. The duration of paw licking behavior (in minutes) was collected from two distinctive phases, the early nociceptive phase occurring 0-10 min after formalin injection and the late phase thought to be associated with central sensitization, which peaks 11-60 min after formalin injection. Treatment effects were compared to vehicles by an unpaired t-test and one-way ANOVA using Graph Pad 9.0. The results are shown in Table 3 and FIG. 2 respectively.
row,SMILES,% MPE (10 mpk) [%]
1,CC(C)(CC(=O)Nc1nn2c(c1-c1ccc(F)cc1)C[C@@H](C(F)(F)F)CC2)C(F)(F)F [Compound 24],97
2,CC(C)(CC(=O)Nc1nn2c(c1-c1ccc(F)cc1)CCCC2)C(F)(F)F [Compound 38],87
3,O=C(CCC(F)(F)F)Nc1nn2c(c1-c1ccc(F)cc1)CC(C(F)(F)F)CC2 (stereo not drawn) [Compound 34],65
4,CC(C)(C)n1c(NC(=O)CC(C)(C)C(F)(F)F)nc2cc3c(cc21)CNC3 [Compound 58],89
5,CC(C)CS(=O)(=O)Nc1nn2ccc(Cl)cc2c1-c1ccc(F)cc1 [Compound 62],89
